From patent publication US20220323406A1, “METHODS AND COMPOSITIONS FOR DIFFERENTIATING STEM CELLS” (Massachusetts Institute of Technology, priority 2019, published 2022)

Experiments:
[1] = test system: ENR+CD organoids (ISC to Paneth cell differentiation); test: Primary screen: CCh-stimulated lysozyme secretion LYZ.S, 2.5-D 384-well ENR+CD organoid differentiation; format: cell-based, mouse; conditions: primary screen
Excerpt: (§1) High-throughput screening.

[2] = test system: ENR+CD organoids; test: Primary screen: ATP (CellTiter-Glo 3D, CTG) cell number/viability, 2.5-D 384-well ENR+CD organoids;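 note: compounds given at plating and again on day 3 over a 6-day differentiation from ENR+CV stem-cell-enriched precursors, ATP measured on day 6, plate median as control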
[3] = test system: ENR+CD organoids (ISC to Paneth cell differentiation); test: Primary screen: basal (non-stimulated) lysozyme secretion LYZ.NS, 2.5-D 384-well ENR+CD organoid differentiation; format: cell-based, mouse
Excerpt: as §1

[4] = primary screen, standard z score, dose 0.08 uM
[5] = primary screen, standard z score, dose 0.40 uM
[6] = primary screen, standard z score, dose 2.00 uM
[7] = primary screen, standard z score, dose 10.00 uM
[8] = primary screen, dose 0.08 uM, FC relative to plate median
[9] = primary screen, dose 0.08 uM, standard z score
[10] = primary screen, dose 0.40 uM, FC relative to plate median
[11] = primary screen, dose 0.40 uM, standard z score
[12] = primary screen, dose 2.00 uM, FC relative to plate median
[13] = primary screen, dose 2.00 uM, standard z score
[14] = primary screen, dose 10.00 uM, FC relative to plate median
[15] = primary screen, dose 10.00 uM, standard z score

SMILES | Dose.FC.LYZ.S ([1]; dose 0.08 uM) [log2 fold change] | Dose.FC.LYZ.S ([1]; dose 0.40 uM) [log2 fold change] | Dose.FC.LYZ.S ([1]; dose 2.00 uM) [log2 fold change] | Dose.FC.LYZ.S ([1]; dose 10.00 uM) [log2 fold change] | Dose.FC.CTG ([2]; primary screen, dose 0.08 uM) [log2 fold change] | Z.CTG (standard z score) ([2]; primary screen, dose 0.08 uM) | Dose.FC.CTG ([2]; primary screen, dose 0.40 uM) [log2 fold change] | Z.CTG (standard z score) ([2]; primary screen, dose 0.40 uM) | Dose.FC.CTG ([2]; primary screen, dose 2.00 uM) [log2 fold change] | Z.CTG (standard z score) ([2]; primary screen, dose 2.00 uM) | Dose.FC.CTG ([2]; primary screen, dose 10.00 uM) [log2 fold change] | Z.CTG (standard z score) ([2]; primary screen, dose 10.00 uM) | Dose.FC.LYZ.NS ([3]; primary screen, dose 0.08 uM) [log2 fold change] | Z.LYZ.NS (standard z score) ([3]; primary screen, dose 0.08 uM) | Dose.FC.LYZ.NS ([3]; primary screen, dose 0.40 uM) [log2 fold change] | Z.LYZ.NS (standard z score) ([3]; primary screen, dose 0.40 uM) | Dose.FC.LYZ.NS ([3]; primary screen, dose 2.00 uM) [log2 fold change] | Z.LYZ.NS (standard z score) ([3]; primary screen, dose 2.00 uM) | Dose.FC.LYZ.NS ([3]; primary screen, dose 10.00 uM) [log2 fold change] | Z.LYZ.NS (standard z score) ([3]; primary screen, dose 10.00 uM) | further results
Cc1cc(C)nc(NS(=O)(=O)c2ccc(NC(=S)NC(=O)COc3ccc(Br)cc3Cl)cc2)n1 [ZCL278] | −0.107 | 0.077 | −0.079 | −0.080 | −0.964 | −2.303 | 0.018 | 0.044 | −0.228 | −0.545 | −0.104 | −0.247 | −0.084 | −0.729 | −0.037 | −0.325 | 0.025 | 0.218 | 0.015 | 0.130 | 
CCOc1ccccc1-n1c(C(C)N2CCN(C(=O)COc3ccc(Cl)cc3)CC2)nc2ccccc2c1=O (stereo not drawn) [Erastin] | 0.170 | 0.160 | 0.106 | 0.039 | 0.225 |  | 0.285 |  | 0.380 |  | 0.298 |  | 0.157 |  | 0.158 |  | 0.157 |  | −0.015 |  | Z.LYZ.NS [3, 4]: 1.368; Z.LYZ.NS [3, 5]: 1.375; Z.LYZ.NS [3, 6]: 1.367; Z.LYZ.NS [3, 7]: −0.133
CCC(COC(=O)c1cc(OC)c(OC)c(OC)c1)(c1ccccc1)N(C)C (stereo not drawn) [Trimebutine] | 0.000 | 0.002 | −0.277 | −0.332 | 0.007 |  | −0.202 |  | −1.008 |  | −1.066 |  | −0.014 | −0.121 | −0.019 | −0.166 | −0.202 | −1.763 | −0.214 | −1.863 | 
CCCCc1nc(Cl)c(CO)n1Cc1ccc(-c2ccccc2-c2nnn[n-]2)cc1.[K+] [Losartan Potassium (DuP 753)] |  |  |  |  |  | −0.362 |  | −0.418 |  | −0.193 |  | −0.328 |  | 0.449 |  | 0.329 |  | −0.362 |  | 0.540 | Dose.FC.LYZ.S (log2 fold change) ([1]; dose 0.08 uM): −0.017; Dose.FC.LYZ.S (log2 fold change) ([1]; dose 0.40 uM): 0.027; Dose.FC.LYZ.S (log2 fold change) ([1]; dose 2.00 uM): −0.080; Dose.FC.LYZ.S (log2 fold change) ([1]; dose 10.00 uM): −0.025; Dose.FC.CTG (log2 fold change) ([2]; primary screen, dose 0.08 uM): −0.152; Dose.FC.CTG (log2 fold change) ([2]; primary screen, dose 0.40 uM): −0.175; Dose.FC.CTG (log2 fold change) ([2]; primary screen, dose 2.00 uM): −0.081; Dose.FC.CTG (log2 fold change) ([2]; primary screen, dose 10.00 uM): −0.137; Dose.FC.LYZ.NS (log2 fold change) ([3]; primary screen, dose 0.08 uM): 0.052; Dose.FC.LYZ.NS (log2 fold change) ([3]; primary screen, dose 0.40 uM): 0.038; Dose.FC.LYZ.NS (log2 fold change) ([3]; primary screen, dose 2.00 uM): −0.042; Dose.FC.LYZ.NS (log2 fold change) ([3]; primary screen, dose 10.00 uM): 0.062
COC(=O)CCSCc1ccc(-c2onc(C)c2NC(=O)OC(C)c2ccccc2Cl)cc1 (stereo not drawn) [Ki16198] |  |  |  |  |  | −0.026 |  | −0.258 |  | −0.078 |  | 0.052 |  | 0.044 |  | −0.076 |  | 0.519 |  | −0.899 | Dose.FC.LYZ.S (log2 fold change) ([1]; dose 0.08 uM): 0.027; Dose.FC.LYZ.S (log2 fold change) ([1]; dose 0.40 uM): 0.031; Dose.FC.LYZ.S (log2 fold change) ([1]; dose 2.00 uM): −0.015; Dose.FC.LYZ.S (log2 fold change) ([1]; dose 10.00 uM): −0.037; Dose.FC.CTG (log2 fold change) ([2]; primary screen, dose 0.08 uM): −0.011; Dose.FC.CTG (log2 fold change) ([2]; primary screen, dose 0.40 uM): −0.108; Dose.FC.CTG (log2 fold change) ([2]; primary screen, dose 2.00 uM): −0.033; Dose.FC.CTG (log2 fold change) ([2]; primary screen, dose 10.00 uM): 0.022; Dose.FC.LYZ.NS (log2 fold change) ([3]; primary screen, dose 0.08 uM): 0.005; Dose.FC.LYZ.NS (log2 fold change) ([3]; primary screen, dose 0.40 uM): −0.009; Dose.FC.LYZ.NS (log2 fold change) ([3]; primary screen, dose 2.00 uM): 0.060; Dose.FC.LYZ.NS (log2 fold change) ([3]; primary screen, dose 10.00 uM): −0.103
COc1ccc2c(c1)c(CC(=O)N1CCOCC1)c(C)n2C(=O)c1ccc(Cl)cc1 [BML-190] | 0.060 | −0.037 | 0.017 | 0.067 | −0.003 | −0.007 | −0.099 | −0.237 | −0.106 | −0.254 | −0.106 | −0.254 | 0.072 | 0.623 | −0.017 | −0.152 | 0.116 | 1.011 | 0.209 | 1.823 | 
CCC(=O)Nc1cccc(Oc2nc(Nc3ccc(N4CCN(C)CC4)cc3OC)ncc2Cl)c1 [WZ4003] | 0.117 | −0.034 | −0.035 | −0.142 | 0.375 | 0.896 | 0.173 | 0.413 | 0.076 | 0.180 | −0.018 | −0.043 | 0.074 | 0.644 | −0.041 | −0.359 | −0.017 | −0.151 | −0.098 | −0.850 | 
COc1cc2ncnc(Nc3ccc(Cl)cc3F)c2cc1OC [ZM 306416] | 0.006 | −0.288 | −0.403 | −0.431 | −0.080 | −0.190 | −0.483 | −1.155 | −1.312 | −3.135 | −1.490 | −3.559 | 0.105 | 0.912 | −0.223 | −1.942 | −0.291 | −2.531 | −0.275 | −2.395 | 
COc1c(C)c(C(=O)c2ccc(N)c(C(=O)[O-])c2)n2ccccc12.[Na+] [SSR128129E] |  |  |  |  |  |  |  |  |  |  |  |  |  |  |  |  |  |  |  |  | Dose.FC.LYZ.S ([1]; dose 0.08 uM, FC relative to plate median): 0.086 log2 fold change; Dose.FC.LYZ.S ([1]; dose 0.40 uM, FC relative to plate median): 0.122 log2 fold change; Dose.FC.LYZ.S ([1]; dose 2.00 uM, FC relative to plate median): 0.023 log2 fold change; Dose.FC.LYZ.S ([1]; dose 10.00 uM, FC relative to plate median): −0.095 log2 fold change; Dose.FC.CTG [2, 8]: 0.088 log2 fold change; Z.CTG [2, 9]: 0.210; Dose.FC.CTG [2, 10]: 0.228 log2 fold change; Z.CTG [2, 11]: 0.545; Dose.FC.CTG [2, 12]: 0.122 log2 fold change; Z.CTG [2, 13]: 0.291; Dose.FC.CTG [2, 14]: −0.026 log2 fold change; Z.CTG [2, 15]: −0.063; Dose.FC.LYZ.NS [3, 8]: 0.093 log2 fold change; Z.LYZ.NS [3, 9]: 0.807; Dose.FC.LYZ.NS [3, 10]: 0.039 log2 fold change; Z.LYZ.NS [3, 11]: 0.339; Dose.FC.LYZ.NS [3, 12]: 0.030 log2 fold change; Z.LYZ.NS [3, 13]: 0.257; Dose.FC.LYZ.NS [3, 14]: −0.098 log2 fold change; Z.LYZ.NS [3, 15]: −0.850
C[C@@H]1C(=O)O[C@H]2C[C@@]34[C@H]5C[C@@H](C(C)(C)C)[C@]36[C@@H](OC(=O)[C@@H]6O)O[C@@]4(C(=O)O5)[C@]21O [Ginkgolide A] | 0.124 | 0.161 | 0.002 | −0.028 | 0.005 |  | −0.017 |  | 0.040 |  | −0.012 |  | 0.045 |  | 0.025 |  | 0.030 |  | 0.052 |  | Z.CTG [2, 4]: 0.011; Z.CTG [2, 5]: −0.040; Z.CTG [2, 6]: 0.095; Z.CTG [2, 7]: −0.028; Z.LYZ.NS [3, 4]: 0.395; Z.LYZ.NS [3, 5]: 0.222; Z.LYZ.NS [3, 6]: 0.258; Z.LYZ.NS [3, 7]: 0.450
